In US11571423B2, “Small molecule modulators of human sting” (Curadev Pharma Limited, priority 2017, dated 2023):
Where a name gives a salt, the structure may show the parent alone.

Assays:
IRF pathway = assay: Reporter gene expression assay in THP1-Dual cells, IRF axis (secreted Lucia luciferase); type: cell-based, human; conditions: Homo sapiens, 20 hr stimulation, EC50 range class, read-out: THP-IRF activity
Description: (§1) THP1-Dual™ cells (Invivogen) were derived from the human THP-1 monocyte cell line by stable integration of two inducible reporter constructs. As a result, THP1-Dual™ cells allow the simultaneous study of the NF-κB pathway, by monitoring the activity of secreted SEAP, and the IRF pathway, by assessing the activity of a secreted luciferase (Lucia). 5×10^5 THP1-Dual™ cells were seeded in 384-well plates in growth medium and stimulated with novel compounds. After 20 hr of stimulation supernatants were removed and reporter proteins were readily measured in the cell culture supernatant using QUANTI-Blue™ (Invivogen), a SEAP detection reagent, and QUANTI-Luc™ (Invivogen), a luciferase detection reagent on a Spectramax i3X luminometer.
(§2) EC50 value ranges for exemplary compounds tested in the above assay are given.

hSTING(H232) = hSTING(H232) (Homo sapiens, UniProt Q86WV6); assay: Luciferase reporter assay in HEK293T-hSTING-Luciferase cells, H232/REF polymorph; type: cell-based; conditions: H232/REF polymorph of human STING, EC50 range class
Sequence of hSTING(H232) (Q86WV6 whole entry): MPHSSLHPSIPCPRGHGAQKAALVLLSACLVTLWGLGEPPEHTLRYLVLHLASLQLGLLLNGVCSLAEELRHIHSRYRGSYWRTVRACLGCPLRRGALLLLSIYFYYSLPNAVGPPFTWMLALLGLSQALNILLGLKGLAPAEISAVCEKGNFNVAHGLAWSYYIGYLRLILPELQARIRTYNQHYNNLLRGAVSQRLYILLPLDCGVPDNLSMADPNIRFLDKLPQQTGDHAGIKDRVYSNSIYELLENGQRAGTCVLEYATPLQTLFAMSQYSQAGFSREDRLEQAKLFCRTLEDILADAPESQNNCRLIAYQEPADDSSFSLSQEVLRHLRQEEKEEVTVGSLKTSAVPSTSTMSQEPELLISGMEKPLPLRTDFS
Excerpt: (§3) Stable Cell Line Generation • a) Stable STING expressing cells—Stable HEK293T STING-expressing cell lines were generated using plasmids purchased from Invivogen, CA, USA, that contain STING cDNA cloned into the pUNO-1 vector under hEF1-HTLV promoter and containing the Blasticidin selection cassette. The plasmids hSTING(R232), hSTING(H232), hSTING(HAQ) were directly procured from Invivogen while hSTING (AQ) and hSTING (Q) were derived from hSTING(HAQ) and hSTING (R232) plasmids respectively by using a PCR based site directed mutagenesis method. These vectors were individually transfected into HEK293T cells using Lipofectamine (Invitrogen) and transfected cells were selected under Blasticidin selection. These transfected cells were further subjected to clonal selection using the limiting dilution method to obtain clonally pure populations of HEK cells transfected with each of the above mentioned human STING variants. Only those clones were selected in which ligand independent activation of STING was minimal. • b) Stable Luciferase reporter gene expressing cells—Stable HEK293T Luciferase reporter gene expressing cell lines were generated using pCDNA4 plasmids under an IRF-inducible promoter. This promoter is comprised of five tandem interferon-stimulated response elements (ISRE) fused to an ISG54 minimal promoter. This vector was transfected into HEK293T cells using Lipofectamine (Invitrogen) and transfected cells were selected under Zeocin selection. These transfected cells were further subjected to clonal selection using the limiting dilution method to obtain clonally pure populations of HEK cells transfected the Luciferase reporter construct. Only those clones were selected in which ligand independent induction of luciferase was minimal.
(§4) 5×10^5 clonally selected HEK293T-hSTING-Luciferase cells were seeded in 384-well plates in growth medium and stimulated with novel compounds. After 20 hr of stimulation supernatant were removed and secretary reporter gene activity were measured using the Quanti-Luc detection system (Invivogen) on a Spectramax i3X luminometer.
(§5) In the tables below, EC50 value ranges for exemplary compounds are given.
(§6) Single nucleotide polymorphisms of human STING have been described, which can affect the functional potency of compounds that modulate the activity of the STING protein (see Yi et. al., PLoS One, October 2013, 8(10), e77846). The 5 major polymorphisms of human STING are shown in FIG. 1, with their prevalence in human populations indicated.
(§7) The tables below show the potency of selected compounds of the invention against the most common polymorphisms.

[1] = biological target: cynomolgus monkey STING protein (Macaca fascicularis, UniProt A0A2R3XZA6); assay: Luciferase reporter assay, cynomolgus monkey STING overexpressed in HEK293T cells; type: cell-based; conditions: cynomolgus monkey STING overexpressed in HEK293T cells; read-out: Cynomolgus monkey STING activity (EC50 range)
Sequence of cynomolgus monkey STING protein (A0A2R3XZA6 entry or part of it): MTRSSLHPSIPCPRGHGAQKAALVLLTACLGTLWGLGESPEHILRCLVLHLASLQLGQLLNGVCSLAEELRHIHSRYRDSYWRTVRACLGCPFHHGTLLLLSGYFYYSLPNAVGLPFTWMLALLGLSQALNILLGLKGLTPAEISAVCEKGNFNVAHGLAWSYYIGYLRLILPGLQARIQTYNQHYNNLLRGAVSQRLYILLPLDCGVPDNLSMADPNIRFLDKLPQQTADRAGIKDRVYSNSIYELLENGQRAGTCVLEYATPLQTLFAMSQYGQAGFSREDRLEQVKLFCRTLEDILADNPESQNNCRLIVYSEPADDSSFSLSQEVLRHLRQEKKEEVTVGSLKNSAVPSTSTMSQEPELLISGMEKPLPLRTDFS
Procedure, shortened: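 HEK293T cells overexpressing cynomolgus STING with a secreted luciferase reporter were stimulated with compound for 20 hr. Supernatant reporter activity was then measured by Quanti-Luc luminescence, and EC50 values were derived.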

NF-κB pathway = assay: Reporter gene expression assay in THP1-Dual cells, NFkB axis (secreted SEAP); type: cell-based, human; conditions: Homo sapiens, 20 hr stimulation, EC50 range class, read-out: THP-NFκB activity
Description: as §1, §2

hSTING(R232) = hSTING(R232) (Homo sapiens, UniProt Q86WV6, H232R); assay: Luciferase reporter assay in HEK293T-hSTING-Luciferase cells, R232 (wild type) human STING; type: cell-based; conditions: 20 hr stimulation, read-out: R232 human activity (EC50 range)
Sequence of hSTING(R232) (Q86WV6 whole entry H232R, the tested form may be a part): as the sequence (Q86WV6 whole entry) above, with H232R counted along it
Procedure, shortened: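 After 20 hr compound stimulation of 5×10^5 cells, secreted luciferase in the supernatant was measured by luminescence; values are fold-induction over baseline and EC50. The line is a clonal HEK293T stably carrying a STING plasmid (pUNO-1) and a luciferase reporter under five tandem ISREs fused to an ISG54 promoter.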

hSTING(HAQ) = hSTING(HAQ) (Homo sapiens, UniProt Q86WV6, G230A/H232R/R293Q/R71H); assay: Luciferase reporter assay in HEK293T-hSTING-Luciferase cells, HAQ polymorph; type: cell-based; conditions: HAQ polymorph of human STING, EC50 range class
Sequence of hSTING(HAQ) (Q86WV6 whole entry R71H/G230A/H232R/R293Q): as the sequence (Q86WV6 whole entry) above, with R71H, G230A, H232R, R293Q counted along it
Excerpt: as §3, §4, §5, §6, §7

SMILES | EC50 (IRF pathway) [nM] | EC50 (hSTING(H232)) [nM] | EC50 [1] [nM] | EC50 (NF-κB pathway) [nM] | EC50 (hSTING(R232)) [nM] | EC50 (hSTING(HAQ)) [nM]
CC1c2ccc(C(=O)NCc3c(F)cc(F)cc3F)cc2N(Cc2c(F)cccc2F)C(=O)N1C (stereo not shown) [Example 206, 1-(2,6-difluorobenzyl)-3,4-dimethyl-2-oxo-N-(2,4,6-trifluorobenzyl)-1,2,3,4-tetrahydroquinazoline-7-carboxamide] | < 1000 | < 1000 | < 1000 | < 1000 |  | < 1000
CNc1cccc(F)c1CN1C(=O)N(C)C(C)c2ccc(C(=O)NCc3c(F)cc(F)cc3F)cc21 (stereo not shown) [Example 174, 1-(2-fluoro-6-(methylamino)benzyl)-3,4-dimethyl-2-oxo-N-(2,4,6-trifluorobenzyl)-1,2,3,4-tetrahydroquinazoline-7-carboxamide] | 1000 to 10000 | < 1000 |  | 1000 to 10000 | < 1000 | < 1000
CC1c2ncc(C(=O)NCc3c(F)cc(F)cc3F)cc2N(Cc2c(F)cccc2Cl)C(=O)N1C (stereo not shown) [Example 148, 1-(2-Chloro-6-fluorobenzyl)-3,4-dimethyl-2-oxo-N-(2,4,6-trifluorobenzyl)-1,2,3,4-tetrahydropyrido[3,2-d]pyrimidine-7-carboxamide] | 1000 to 10000 | < 1000 |  | 1000 to 10000 | < 1000 | < 1000
C[C@H]1c2ccc(C(=O)NCc3c(F)cc(F)cc3F)cc2N(Cc2ncccc2F)C(=O)N1C [Example 227, (S)-1-((3-fluoropyridin-2-yl)methyl)-3,4-dimethyl-2-oxo-N-(2,4,6-trifluorobenzyl)-1,2,3,4-tetrahydroquinazoline-7-carboxamide] | 1000 to 10000 | 1000 to 10000 |  | 1000 to 10000 | < 1000 | 1000 to 10000
CC1c2ccc(C(=O)NCc3c(F)cc(F)cc3F)cc2N(Cc2c(O)cccc2F)C(=O)N1C (stereo not shown) [Example 171, 1-(2-fluoro-6-hydroxybenzyl)-3,4-dimethyl-2-oxo-N-(2,4,6-trifluorobenzyl)-1,2,3,4-tetrahydroquinazoline-7-carboxamide] | < 1000 | < 1000 | < 1000 | < 1000 |  | < 1000
Cc1ncc(CN2C(=O)N(C)Cc3ccc(C(=O)NCc4c(F)cc(F)cc4F)cc32)s1 [Example 20, 3-methyl-1-((2-methylthiazol-5-yl)methyl)-2-oxo-N-(2,4,6-trifluorobenzyl)-1,2,3,4-tetrahydroquinazoline-7-carboxamide] | 1000 to 10000 | 1000 to 10000 |  | 1000 to 10000 | 1000 to 10000 | 1000 to 10000
CC1c2ccc(C(=O)NCc3cc4ccccc4o3)cc2N(Cc2c(F)cccc2Cl)C(=O)N1C (stereo not shown) [Example 213, N-(benzofuran-2-ylmethyl)-1-(2-chloro-6-fluorobenzyl)-3,4-dimethyl-2-oxo-1,2,3,4-tetrahydroquinazoline-7-carboxamide] | 1000 to 10000 | 1000 to 10000 |  | 1000 to 10000 | < 1000 | 1000 to 10000

More lines, now with the values ahead:

EC50 (IRF pathway) [nM] | EC50 (hSTING(H232)) [nM] | EC50 [1] [nM] | EC50 (NF-κB pathway) [nM] | EC50 (hSTING(R232)) [nM] | EC50 (hSTING(HAQ)) [nM] | SMILES
< 1000 | < 1000 | < 1000 | < 1000 | < 1000 | < 1000 | COc1cnc(C)c(F)c1CN1C(=O)N(C)[C@@H](C)c2ccc(C(=O)NCc3c(F)cc(F)cc3F)cc21 [Example 296, (S)-1-((3-fluoro-5-methoxy-2-methylpyridin-4-yl)methyl)-3,4-dimethyl-2-oxo-N-(2,4,6-trifluorobenzyl)-1,2,3,4-tetrahydroquinazoline-7-carboxamide]
< 1000 | < 1000 | 1000 to 10000 | < 1000 | < 1000 | < 1000 | C[C@H]1c2ccc(C(=O)NCc3c(F)cc(F)cc3F)cc2N(Cc2cc(OCCCO)cc(F)c2F)C(=O)N1C [Example 283, (S)-1-(2,3-difluoro-5-(3-hydroxypropoxy)benzyl)-3,4-dimethyl-2-oxo-N-(2,4,6-trifluorobenzyl)-1,2,3,4-tetrahydroquinazoline-7-carboxamide]
1000 to 10000 | < 1000 |  | 1000 to 10000 | < 1000 | 1000 to 10000 | C[C@H]1c2ccc(C(=O)NCc3c(F)cc(F)cc3F)cc2N(Cc2c(F)cccc2NCCO)C(=O)N1C [Example 264, (S)-1-(2-fluoro-6-((2-hydroxyethyl)amino)benzyl)-3,4-dimethyl-2-oxo-N-(2,4,6-trifluorobenzyl)-1,2,3,4-tetrahydroquinazoline-7-carboxamide hydrochloride]
1000 to 10000 | 1000 to 10000 |  | 1000 to 10000 | < 1000 | 1000 to 10000 | C[C@H]1c2ccc(C(=O)NCc3c(F)cc(F)cc3F)cc2N(Cc2cc(CO)ccc2F)C(=O)N1C (stereo in doubt) [Example 268, 1-(2-fluoro-5-(hydroxymethyl)benzyl)-3,4-dimethyl-2-oxo-N-(2,4,6-trifluorobenzyl)-1,2,3,4-tetrahydroquinazoline-7-carboxamide]
1000 to 10000 | 1000 to 10000 |  | 1000 to 10000 | < 1000 | 1000 to 10000 | Cc1ccc(F)c(CN2C(=O)N(C)C(C)c3ccc(C(=O)NCc4c(F)cc(F)cc4F)cc32)n1 (stereo not shown) [Example 238, 1-((3-fluoro-6-methylpyridin-2-yl)methyl)-3,4-dimethyl-2-oxo-N-(2,4,6-trifluorobenzyl)-1,2,3,4-tetrahydroquinazoline-7-carboxamide]
1000 to 10000 | < 1000 |  | 1000 to 10000 | < 1000 | < 1000 | Cc1cc(CN2C(=O)N(C)C(C)c3ccc(C(=O)NCc4c(F)cc(F)cc4F)cc32)c(F)cn1 (stereo not shown) [Example 237, 1-((5-fluoro-2-methylpyridin-4-yl)methyl)-3,4-dimethyl-2-oxo-N-(2,4,6-trifluorobenzyl)-1,2,3,4-tetrahydroquinazoline-7-carboxamide]
> 10000 | 1000 to 10000 |  | > 10000 | 1000 to 10000 | 1000 to 10000 | C[C@H]1c2ccc(C(=O)NCc3c(F)cc(F)cc3F)cc2N(Cc2ccc(N)cc2)C(=O)N1C [Example 243, (S)-1-(4-aminobenzyl)-3,4-dimethyl-2-oxo-N-(2,4,6-trifluorobenzyl)-1,2,3,4-tetrahydroquinazoline-7-carboxamide]
< 1000 | < 1000 |  | < 1000 | < 1000 | < 1000 | C[C@H]1c2ccc(C(=O)NCc3c(F)cc(F)cc3F)cc2N(Cc2c(N)ccc(F)c2F)C(=O)N1C [Example 285, (S)-1-(6-amino-2,3-difluorobenzyl)-3,4-dimethyl-2-oxo-N-(2,4,6-trifluorobenzyl)-1,2,3,4-tetrahydroquinazoline-7-carboxamide]
> 10000 | 1000 to 10000 |  | > 10000 | 1000 to 10000 | 1000 to 10000 | CC1c2ccc(C(=O)NCc3ccc(O)cc3)cc2N(Cc2c(F)cccc2Cl)C(=O)N1C (stereo not shown) [Example 235, 1-(2-chloro-6-fluorobenzyl)-N-(4-hydroxybenzyl)-3,4-dimethyl-2-oxo-1,2,3,4-tetrahydroquinazoline-7-carboxamide]
